Experimental data published in ChEMBL document CHEMBL5233266, “β-Carboline as a Privileged Scaffold for Multitarget Strategies in Alzheimer's Disease Therapy” (J Med Chem, 2021).

Legend:
Histone deacetylase 8 = Histone deacetylase 8 (Homo sapiens, UniProt Q9BY41); test: Inhibition of HDAC8 (unknown origin)
Histone deacetylase 1 = Histone deacetylase 1 (Homo sapiens, UniProt Q13547); test: Inhibition of HDAC1 (unknown origin)
Histone deacetylase 4 = Histone deacetylase 4 (Homo sapiens, UniProt P56524); test: Inhibition of HDAC4 (unknown origin)
Chain of Histone deacetylase 4 (P56524 whole entry): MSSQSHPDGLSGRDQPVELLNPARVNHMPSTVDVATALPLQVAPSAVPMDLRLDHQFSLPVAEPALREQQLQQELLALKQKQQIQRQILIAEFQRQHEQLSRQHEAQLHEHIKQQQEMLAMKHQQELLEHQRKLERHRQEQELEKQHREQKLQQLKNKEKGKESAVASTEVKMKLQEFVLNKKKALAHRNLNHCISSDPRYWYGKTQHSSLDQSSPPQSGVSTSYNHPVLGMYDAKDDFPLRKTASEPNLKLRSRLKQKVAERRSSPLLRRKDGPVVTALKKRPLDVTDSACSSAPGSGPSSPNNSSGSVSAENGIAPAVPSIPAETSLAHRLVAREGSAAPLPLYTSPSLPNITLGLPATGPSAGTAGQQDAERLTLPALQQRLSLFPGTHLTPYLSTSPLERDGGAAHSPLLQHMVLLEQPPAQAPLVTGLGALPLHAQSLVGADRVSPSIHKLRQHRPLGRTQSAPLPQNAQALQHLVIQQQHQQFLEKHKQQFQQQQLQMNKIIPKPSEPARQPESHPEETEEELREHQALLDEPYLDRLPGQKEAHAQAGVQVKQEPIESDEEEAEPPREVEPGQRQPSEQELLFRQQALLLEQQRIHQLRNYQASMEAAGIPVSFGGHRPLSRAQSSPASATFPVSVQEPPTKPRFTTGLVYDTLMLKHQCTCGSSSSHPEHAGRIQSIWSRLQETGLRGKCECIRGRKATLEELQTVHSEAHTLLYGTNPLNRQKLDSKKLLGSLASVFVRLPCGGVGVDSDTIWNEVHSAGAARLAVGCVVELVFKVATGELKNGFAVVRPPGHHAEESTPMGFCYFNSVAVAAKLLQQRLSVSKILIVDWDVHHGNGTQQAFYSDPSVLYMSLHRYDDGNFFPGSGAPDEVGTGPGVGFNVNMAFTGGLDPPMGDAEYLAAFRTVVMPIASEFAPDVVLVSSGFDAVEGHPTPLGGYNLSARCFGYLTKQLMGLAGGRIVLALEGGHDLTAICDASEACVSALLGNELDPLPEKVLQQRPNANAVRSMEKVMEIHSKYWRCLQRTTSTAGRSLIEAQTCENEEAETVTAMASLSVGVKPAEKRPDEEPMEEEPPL

Chain of Histone deacetylase 8 (Q9BY41 whole entry): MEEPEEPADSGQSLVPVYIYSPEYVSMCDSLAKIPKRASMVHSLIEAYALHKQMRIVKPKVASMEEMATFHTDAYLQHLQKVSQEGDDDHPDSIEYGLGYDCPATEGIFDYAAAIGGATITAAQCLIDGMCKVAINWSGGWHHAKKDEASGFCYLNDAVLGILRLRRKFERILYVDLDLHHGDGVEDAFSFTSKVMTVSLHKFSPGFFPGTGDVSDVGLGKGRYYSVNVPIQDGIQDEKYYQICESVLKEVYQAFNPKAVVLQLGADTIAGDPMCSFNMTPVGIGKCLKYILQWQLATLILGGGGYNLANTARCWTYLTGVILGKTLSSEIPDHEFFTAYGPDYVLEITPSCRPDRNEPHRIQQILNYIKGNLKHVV
Chain of Histone deacetylase 1 (Q13547 whole entry): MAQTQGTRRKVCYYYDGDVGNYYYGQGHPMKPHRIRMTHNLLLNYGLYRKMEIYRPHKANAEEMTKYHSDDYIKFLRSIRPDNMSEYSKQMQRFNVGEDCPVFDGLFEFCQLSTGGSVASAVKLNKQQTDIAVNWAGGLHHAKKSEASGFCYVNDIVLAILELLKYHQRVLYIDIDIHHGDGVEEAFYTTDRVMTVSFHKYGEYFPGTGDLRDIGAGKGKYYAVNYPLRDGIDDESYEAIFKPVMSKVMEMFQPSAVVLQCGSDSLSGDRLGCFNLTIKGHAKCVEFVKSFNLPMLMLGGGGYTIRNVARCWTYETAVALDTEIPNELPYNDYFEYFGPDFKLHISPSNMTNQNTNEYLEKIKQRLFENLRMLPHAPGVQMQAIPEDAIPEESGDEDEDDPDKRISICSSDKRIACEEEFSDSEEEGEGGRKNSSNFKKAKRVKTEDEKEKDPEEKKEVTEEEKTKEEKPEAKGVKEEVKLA

IC50 (Histone deacetylase 8): > 1000 nM | IC50 (Histone deacetylase 1): 4.1 nM | IC50 (Histone deacetylase 4): > 1000 nM
SMILES: COc1ccc(-c2nc(C(=O)NCc3ccc(C(=O)NO)cc3)cc3c2[nH]c2ccccc23)cc1
